Consider 2 molecules from patent US20240325374A1, “INHIBITING INTRACELLULAR PATHOGENS” (THE RESEARCH INSTITUTE AT NATIONWIDE CHILDREN'S HOSPITAL, priority 2021, published 2024).

For one data set, the system named is macrophages. Nature of the data set: Toxicity of compound alone to macrophages by LDH release. The format is cell-based. Conditions: effective concentrations.
The next data set deals with uninfected mice. In words: Toxicity study of KH-1-2 in vivo. As for the experimental part:
To examine the toxicity of KH-1-2, mice were intraperitoneally (i.p.) given KH-1-2 that was dissolved in 200 μl of polyethylene glycol 400 (PEG 400)-0.9% saline-ethanol (50:35:15) at 1 mg and 10 mg/kg of body weight per day for 12 consecutive days. Mice in the control groups received 200 μl of PEG-saline-ethanol. The experimental animals were observed daily throughout the study for clinical signs, and mortality. At the end of the experiment, mice were sacrificed, and liver, spleen, and kidney were collected, fixed in 4% paraformaldehyde for 72 hrs, processed and stained with hematoxylin and eosin (H&E) for histopathologic evaluation, which was performed at the Morphology Core at Nationwide Children's Hospital.
To examine the in vivo toxicity of KH-1-2, uninfected mice were given KH-1-2 intraperitoneally in 200 μl of polyethylene glycol 400 (PEG 400)-0.9% saline-ethanol (50:35:15) at 1 and 10 mg/kg body weight daily for 12 consecutive days. Mice in the control group were treated with an equal amount of diluent. Mice were monitored for clinical signs and at day 13, the liver, spleen, and kidney were collected for histopathologic evaluation.

Data set [1] deals with PLB-985 neutrophil-like cells. In words: Neutrophil reactive oxygen species production assay. The note with it: various concentrations, luminol chemiluminescence for 1 hour. The format is cell-based. How it is done: PLB-985 cells that were cultured in RPMI supplemented with 10% FBS and penicillin-streptomycin (100 μg/ml each) were differentiated to a neutrophil-like phenotype by 6-day incubation in RPMI supplemented with 0.5% N,N-dimethylformamide, 0.5% FBS, 1% Nutridoma-SP (Roche; Mannheim, Germany), […] L-glutamine, and 1× penicillin/streptomycin. Media was replaced on day 3. On day 6 after differentiation, the medium was removed and replaced with 100 μl fresh medium containing different concentrations of KH-1-2. Cells in the positive control group were stimulated with 400 ng PMA/ml. Cells in the negative control group were treated with an equivalent concentration of DMSO. All groups were supplied with luminol (final concentration of 500 μM) and reactive oxygen species (ROS) production at 37° C. was monitored in triplicate by luminol-dependent chemiluminescence measured every 2 minutes for 1 hour using a Spectra Max M3 plate reader.

Data set [2] has as its system S. typhimurium wild-type strain ATCC 14028. In words: Bacterial growth in macrophages (intracellular CFU), wild-type S. typhimurium in J774.1. The format is cell-based. From the text: (§1) Hoang et al., International Journal of Pharmaceutics, 2014. 477(1-2): p. 334-343.
The J774.1 cells were infected with S. typhimurium and treated with KH-2.

The test system of data set [3] is ciprofloxacin-resistant S. typhimurium. In words: Mouse model of typhoid fever, ciprofloxacin-resistant S. typhimurium, survival. The format is in vivo, BALB/c mice. How it is done: S. typhi is a human-restricted pathogen and is unable to colonize in mice. However, S. typhimurium causes a typhoid fever-like disease in mice and is widely used as a model to study human typhoid fever. Johnson, R., E. Mylona, and G. Frankel, Cell Microbiol, 2018. 20(9): p. e12939. […] Mice were infected with the ciprofloxacin-resistant S. typhimurium at a lethal dose of 10^6 CFU per mouse in 200 μl PBS via the i.p. route.
After determining the maximum tolerable dose of KH-1-2 by the i.p. route (10 mg/kg of body weight per day), the protective efficacy of KH-1-2 as a treatment for typhoid fever was evaluated. Mice (4 or 5 mice per group) were infected at day 0 with a lethal dose of the ciprofloxacin-resistant S. typhimurium isolate as described above. One day post-infection, the infected mice were given KH-1-2 prepared in 200 μl PBS at 0.05, 0.1, and 0.25 mg/kg body weight per day via i.p. delivery for 14 consecutive days.
We next sought to examine the effectiveness of delivering KH-1-2 for controlling a ciprofloxacin-resistant S. typhimurium isolate in a mouse model of typhoid fever. Mice were challenged with a lethal dose of bacteria via oral gavage and the infected mice were i.p. treated with KH-1-2 prepared in 200 μl PBS at 0.05, 0.1, and 0.25 mg/kg body weight/day for 14 consecutive days. […] As expected, all mice in the control group were moribund before or at day 12 post-infection.

In the next data set the test system is S. typhi strain TY2. Nature of the data set: Bacterial growth in macrophages (intracellular CFU), S. typhi in J774.1. The format is cell-based. The note with it: infected J774.1, 24 hrs post treatment.
Text: as §1

For data set [4], the system named is S. typhimurium. In words: Broth antibacterial assay (OD600 in LB). Format: cell-based. The note with it: KH-2 10 μM, 20 μM and 50 μM. As for the experimental part:
An equivalent amount of DMSO was added in a control group. The bacterial growth was monitored at an optical density at 600 nm (OD600) at the indicated time points using a plate reader Spectra Max M3.
Overnight cultures of S. typhimurium were sub-cultured (1:100) in fresh Luria-Bertani (LB) broth in presence of different concentration of KH-2 and incubated at 37° C. The vehicle control (DMSO) groups were included. The experiments were performed in 96-well plates. The bacterial growth was monitored at different time-points by measuring optical density at 600 nm (OD600).

The test system of data set [5] is S. typhimurium-infected J774.1 macrophages. Nature of the data set: LDH release from Salmonella-infected macrophages. The note with it: 5 μM, 10 μM and 20 μM, after 24 h. The format is cell-based, murine. As for the experimental part:
The strategy to identify host-targeted compounds is outlined in FIG. 1. Briefly, J774.1 macrophages in suspension at 3×10^6 cells/ml were infected with S. typhimurium at a multiplicity of infection (MOI) of 10 for 1 hour with orbital shaking at 80 rpm. […] The infected macrophages were resuspended in a medium containing 10 μg/ml gentamicin, seeded onto 96-well plates at 10^5 cells/well in 150 μl medium, and allowed to adhere to the well for three hours. The infected cells in each well were then treated with 25 μM of each compound from the ATP mimetic library using a multichannel pipette. […] After 24 hours of incubation, an LDH assay (Roche Applied Science, Indianapolis, IN) was performed using 50 μl of supernatant from each well. Absorbance at 570 nm was determined via a plate reader Spectra Max M3. […]
We developed a cell-based assay to screen 3000 compounds of an ATP-mimetic library purchased from ChemBridge using J774.1 macrophages for those that protect S. typhimurium-infected macrophages from death. The viability of Salmonella-infected J774.1 cells was determined by measuring LDH release from the infected cells. […] To examine whether the reduction in LDH release was due to the limited growth of the bacteria intracellularly, the infected cells were treated with various concentrations of KH-1, and the intracellular bacterial load was determined at 24 hours post-treatment. […]
(In general: LDH leaks from cells whose membrane has failed.)

Data set [6] has as its system S. typhimurium. Nature of the data set: KH-2 protection of mice from lethal S. typhimurium infection, survival. The note with it: 0.5, 1.0, 2.5 and 5 mg/kg/day i.p., day 1 to day 12, oral infection 10^6 bacteria/mouse, survival to day 14. Format: in vivo, BALB/c mice. As for the experimental part: Pathogen-free 6- to 8-week-old female BALB/c mice were purchased from Harlan Sprague. Mice (3 mice/group, except the vehicle control group) were provided food and water ad libitum in sterile microisolator cages and allowed to acclimatize for 3 days before challenge. Mice were orally infected with 10^6 bacteria/mouse (day 0) in 200 μl PBS. The infected mice were intraperitoneally given KH-2 at different doses (5 mg, 2.5 mg, 1 mg, and 0.5 mg/kg body weight/day) in 200 μl PBS from day 1 to day 12 post infection. Vehicle (DMSO) was added as the control group. The mice were monitored for survival until day 14 post infection. […] A mouse model of typhoid fever was used to assess the efficacy of KH-2 in increasing the survival rate of infected mice.

For `O=C1c2oc3ccccc3c(=O)c2C(c2cccc(Oc3ccccc3)c2)N1Cc1ccc(F)cc1` (stereo not drawn) [KH-1-2, 2-(4-fluorobenzyl)-1-(3-phenoxyphenyl)-1,2-dihydrochromeno[2,3-c] pyrrole-3,9-dione], the “toxicity to macrophages as measured by LDH release” value with macrophages is reported as “not toxic to macrophages at the effective concentrations”. In addition, the liver histopathology result with uninfected mice (1 mg/kg i.p. daily) is “no adverse effects”; in the data set on uninfected mice (10 mg/kg i.p. daily), “minimal alterations including increased infiltration of lymphocytic cells and neutrophils”. Besides, the maximum tolerable dose with uninfected mice (i.p. route, mice) was 10 mg/kg of body weight per day. In addition, the clinical signs entry in the data set with uninfected mice (uninfected mice, i.p., 1 and 10 mg/kg body weight daily, 12 consecutive days) was “no adverse clinical signs”. In addition, in the data set with uninfected mice (uninfected mice, i.p., 1 and 10 mg/kg daily, 12 days), the “immune cell migration and apoptosis in liver, spleen, kidney” value is reported as “No increase in immune cell migration or significant apoptosis”. Besides, the “histologic evaluation of the liver, spleen, and kidney” value in the data set on uninfected mice (uninfected mice, i.p., 1 and 10 mg/kg daily, 12 days, organs at day 13) is listed as “no dose-related macroscopic or microscopic findings”. For the same molecule, in [1], the “reactive oxygen species (ROS) production” value is given as “does not involve in induction of reactive oxygen species (ROS) production”. Further, the EC50 in [2] (Salmonella enterica, infected J774.1 cells, CFU at 24 hrs post treatment, % of DMSO control, read-out: half maximal effective concentration (EC50) on S. typhimurium) came out at 2600 nM. Moreover, the “reduction in bacterial load in infected macrophages” value in data set [2] (in vitro treatment of Salmonella infection) is 8- to 10 fold. Besides, the “intracellular bacterial growth in combination with sub-optimal ciprofloxacin” value in data set [2] (infected macrophages, with sub-optimal dose of ciprofloxacin, 24 hours post-treatment) is on record as “further reduces Salmonella growth inside macrophages”. The survival in [3] (0.1 mg/kg body weight/day i.p., 14 consecutive days, lethal dose 10^6 CFU/mouse) was found to be 60%. Also, the “survival versus control untreated group” value in data set [3] (0.05, 0.1 and 0.25 mg/kg body weight/day i.p., 14 days, p<0.05) is listed as “significantly greater survival”. Further, in the data set on S. typhi strain TY2, the “intracellular growth of S. typhi, compared with KH-1” value is reported as “more effective at reducing the intracellular growth of S. typhi”.
In the case of `COC(=O)c1cccc(COC(=O)c2cc(O)nc3ccccc23)c1` [KH-2, 3-(methoxycarbonyl)benzyl 2-hydroxy-4-quinolinecarboxylate], the “growth of Salmonella in Luria-Bertani (LB) bacterial growth media (OD600)” value in the data set on S. typhimurium [4] was “does not inhibit the growth of Salmonella in Luria-Bertani (LB) bacterial growth media”. For the same molecule, in data set [5], the “lactate dehydrogenase (LDH) release from Salmonella infected J774.1 macrophages” value is “reduced lactate dehydrogenase (LDH) release from Salmonella infected J774.1 macrophages”. For the same molecule, the “growth of Salmonella in J774.1 macrophages (intracellular CFU)” value in [2] (KH-2 5 μM, 10 μM and 20 μM, after 24 hours) is reported as “inhibits the growth of Salmonella in J774.1 macrophages”. For the same molecule, in the data set with S. typhimurium [6], the “survival of mice after lethal Salmonella infection” value is listed as “protects mice from lethal Salmonella infection”.
